Earlier results on twelve compounds are cited in article PMC10458307, “New Scaffolds of Proteasome Inhibitors: Boosting Anticancer Potential by Exploiting the Synergy of In Silico and In Vitro Methodologies” (Pharmaceuticals, 2023).

Peptide text beside a SMILES is read from it. * marks the point of attachment. Cbz = O=C(OCc1ccccc1)*

The subject of data set [1] is proteasome CT-L active site. Conditions: literature values of known proteasome inhibitors; reference per compound; cited from earlier work.
Data set [2] relates to proteasome C-L active site. As to conditions: literature values; ref 34 (bortezomib), 35 (ixazomib); cited from earlier work.
The test system of another data set is proteasome T-L activity. Also on record: method as in PMID 16286248. As to conditions: literature value; cited from earlier work.

With `O=c1c(O)c(-c2ccc(O)cc2)oc2cc(O)cc(O)c12` [Kaempferol], the IC50 in data set [1] was 10500 nM.

For the compound `Oc1cc(O)c2cc(O)c(-c3ccc(O)c(O)c3)[o+]c2c1` [Cyanidin], in data set [1], the IC50 was 18400 nM.

Consider `Oc1cc(O)c2cc(O)c(-c3cc(O)c(O)c(O)c3)[o+]c2c1` [Delphinidin], for which the concentration for half-maximal inhibition (IC50) in data set [1] is 32400 nM.

Regarding `COc1cc(-c2[o+]c3cc(O)cc(O)c3cc2O)cc(OC)c1O` [Malvidin], the 50% inhibitory concentration (IC50) in data set [1] is 32000 nM.

With `CC(C)C[C@@H](C=O)NC(=O)[C@H](CC(C)C)NC(=O)[C@H](CC(C)C)NC(=O)OCc1ccccc1` [MG-132] (Cbz-Leu-Leu-Leu-aldehyde), the IC50 in data set [1] was 40 nM.

For the compound `CC(C)C[C@H](NC(=O)CNC(=O)c1cc(Cl)ccc1Cl)B(O)O` [Ixazomib, ixazomib], the IC50 in data set [2] was 31 nM.

On to `O=c1cc(-c2ccc(O)cc2)oc2cc(O)cc(O)c12` [Apigenin], for which the IC50 in data set [1] was 1800 nM.

For the compound `CCCCCCCCC[C@@H](O)CC(=O)N[C@@H](CC(N)=O)C(=O)N[C@@H](CCC(N)=O)C(=O)N[C@H](C=O)CC(C)C` [Fellutamide B], in data set [1], the IC50 was 9.4 nM.

With `C/C=C\NC(=O)[C@H]1NC(=O)[C@H](CC(N)=O)NC(=O)[C@@H](NC(=O)C(=O)[C@@H](C)CC)Cc2ccc(O)c(c2)-c2cccc3c2NC(=O)[C@@]3(O)[C@@H]1O` [TMC-95A], the IC50 in data set [1] is 5.4 nM.

Take `O=c1c(O)c(-c2ccc(O)c(O)c2)oc2cc(O)cc(O)c12` [Quercetin]: the IC50 in data set [1] was 3500 nM.

In the case of `CC[C@H](C)[C@H](NC(=O)[C@H]([C@@H](C)CC)N(C)C(C)=O)C(=O)N[C@H](C(=O)N[C@@H](CC(C)C)C(=O)[C@@]1(C)CO1)[C@@H](C)O` [Epoxomicin], the IC50 in data set [1] is 47 nM.

Consider `C[C@@]12OC(=O)[C@]1([C@@H](O)[C@@H]1C=CCCC1)NC(=O)[C@@H]2CCCl` [Marizomib, marizomib], for which, in the data set with proteasome T-L activity, the IC50 is 28 nM.

The term IC50 denotes the concentration that inhibits the measured activity by half.
